{"source": "patent US6924309B2", "about": "(Children, Youth and Women's Health Service Incorporated, priority 1999, dated 2005)", "key": {"15-LO": {"target": "T1, 15-LO (Glycine max, UniProt P08170)", "T1 construct": "purchased Sigma Chemical Company", "T1 sequence (P08170 1-839)": "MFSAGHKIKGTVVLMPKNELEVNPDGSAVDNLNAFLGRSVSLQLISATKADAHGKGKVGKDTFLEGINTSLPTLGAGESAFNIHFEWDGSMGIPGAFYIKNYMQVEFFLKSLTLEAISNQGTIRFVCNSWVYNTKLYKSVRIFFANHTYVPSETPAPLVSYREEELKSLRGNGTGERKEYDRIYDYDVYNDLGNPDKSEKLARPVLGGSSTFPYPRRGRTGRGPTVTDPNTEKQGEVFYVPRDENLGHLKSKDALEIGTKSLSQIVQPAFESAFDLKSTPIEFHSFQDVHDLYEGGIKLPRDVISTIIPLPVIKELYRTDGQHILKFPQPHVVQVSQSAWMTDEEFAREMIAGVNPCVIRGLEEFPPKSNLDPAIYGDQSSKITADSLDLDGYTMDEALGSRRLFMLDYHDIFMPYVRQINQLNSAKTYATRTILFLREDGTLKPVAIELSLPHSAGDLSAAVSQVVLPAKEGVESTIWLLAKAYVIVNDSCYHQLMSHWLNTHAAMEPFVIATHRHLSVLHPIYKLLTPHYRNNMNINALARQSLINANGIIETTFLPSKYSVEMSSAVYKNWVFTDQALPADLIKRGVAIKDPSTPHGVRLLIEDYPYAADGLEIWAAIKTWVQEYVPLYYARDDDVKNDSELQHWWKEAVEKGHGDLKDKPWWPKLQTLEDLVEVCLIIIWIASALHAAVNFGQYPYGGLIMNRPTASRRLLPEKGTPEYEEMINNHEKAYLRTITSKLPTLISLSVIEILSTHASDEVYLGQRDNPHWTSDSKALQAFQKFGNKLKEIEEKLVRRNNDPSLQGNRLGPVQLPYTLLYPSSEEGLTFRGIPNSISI", "experiment": "Effect on 15-LO catalysed oxidation of arachidonic acid", "format": "biochemical, soybean"}, "[1]": {"test_system": "Plasmodium falciparum isolates 3D7, FC27, K+", "experiment": "Radiometric (3H-hypoxanthine) assay on asexual blood stages of P. falciparum", "format": "cell-based", "conditions": "for EC50: Plasmodium falciparum, read-out: EC50 against P. falciparum", "procedure": "Using the radiometric assay^(36), the effects of the Lx compounds were examined for antimalarial activity. The Plasmodium falciparum isolates used were 3D7, FC27, K^1 and K^+. These were maintained in human blood group O^+ erythrocytes essentially as described previously using RPM-1640 (HEPES modification) supplemented with 0.25% D-glucose, 0.2% Tess buffer (Sigma Chemical Co, Lt Louis, Mo.) and 10% heat inactivated (56° C., 20 min) human blood group AB serum. Cultures were maintained in tissue culture flasks (Corning, N.Y.) at 37° C. under an atmosphere of 1% 2, 5% CO2 in N2. P. falciparum cultures containing approximately 3.0:% parasitaemia were adjusted to 1×10^8 erythrocytes/ml. To 50 μl of the parasite-erythrocyte culture (5×10^6 erythrocytes) in wells of 96-well microdilution plates wvas added 50 μl of the designated concentration of fatty acid or equivalent amounts of solutions or media. The treated cultures were incubated at 37° C. for 4 h and then pulsed with 50 μl (2.5 μCi) of ^3H-hypoxanthine. After a further 18 h incubation the parasites-erythrocytes were harvested onto glass fibre filter papers using a cell harvester. The amount of radioactivity incorporated was measured in a β-counter. The results have been expressed as % inhibition of parasite growth i.e. the dpm in the fatty acid diluent−dpm in the fatty acid treated cultures/dpm in diluent×100."}, "Red blood cells": {"test_system": "Red blood cells", "experiment": "Incorporation of Lx3 into normal red blood cells", "format": "cell-based", "conditions": "200 μg Lx3, 37° C., 4 h", "procedure": "Red blood cells or parasitised red blood cells (K+ strain, 9.25% parasitaenia) (5×10^8 cells) were incubated with 200 μg of Lx3 in 10 mls of HBSS at 37° C. for 4 h. The incubate was centrifuged (3,000 rpm for 10 min) and the medium aspirated. The cell pellet was washed 3 times with 5 ml of HBSS with centrifugation. Lipids were extracted from the cell pellet and neutral lipids, phospholipids and unesterffied Lx3 were resolved by thin-layer chromatography. The neutral lipid and phospholipid samples were transesterified to release any bound Lx3. The amount of Lx3 associated with the unesterifield, neutral lipid and phospholipid fractions was quantitated by gas-liquid chromatography using nonadecanoic acid (nonadecylic acid (19:0)) methyl ester (48 nmol) as a reference standard. For definitive identification of Lx3 and possible products (elongation, de-saturation, shorter-chain products), a combined gas-liquid chromatography-mass spectrometry (GC-MS) technique was employed. FIG. 6 is the GC-MS (expanded view) of Lx3 isolated from parasitised RBC. The mass spectrum of each peak unambiguously identifies 19:0 and Lx3 (19:3(n-6)-N02) respectively. […] No Lx3 was esterified in neutral lipids and phospholipids (Table 4). It is important to note that parasitised red blood cells took up approximately 6 times more Lx3 than non-parasitised cells. […]"}, "[2]": {"test_system": "parasitised red blood cells (K+ strain)", "experiment": "Incorporation of Lx3 into parasitised red blood cells", "format": "cell-based, P. falciparum", "procedure": "Red blood cells or parasitised red blood cells (K+ strain, 9.25% parasitaenia) (5×10^8 cells) were incubated with 200 μg of Lx3 in 10 mls of HBSS at 37° C. for 4 h. The incubate was centrifuged (3,000 rpm for 10 min) and the medium aspirated. The cell pellet was washed 3 times with 5 ml of HBSS with centrifugation. Lipids were extracted from the cell pellet and neutral lipids, phospholipids and unesterffied Lx3 were resolved by thin-layer chromatography. The neutral lipid and phospholipid samples were transesterified to release any bound Lx3. The amount of Lx3 associated with the unesterifield, neutral lipid and phospholipid fractions was quantitated by gas-liquid chromatography using nonadecanoic acid (nonadecylic acid (19:0)) methyl ester (48 nmol) as a reference standard. For definitive identification of Lx3 and possible products (elongation, de-saturation, shorter-chain products), a combined gas-liquid chromatography-mass spectrometry (GC-MS) technique was employed. FIG. 6 is the GC-MS (expanded view) of Lx3 isolated from parasitised RBC. The mass spectrum of each peak unambiguously identifies 19:0 and Lx3 (19:3(n-6)-N02) respectively. […] No Lx3 was esterified in neutral lipids and phospholipids (Table 4). It is important to note that parasitised red blood cells took up approximately 6 times more Lx3 than non-parasitised cells. […] The lack of derivatisation or incorporation of Lx3 into neutral lipids and phospholipids is almost certainly due to Lx3 not having a carboxylic acid group which is mandatory for the conversion of a fatty acid to its coenzyme A ester."}, "P. berghei": {"test_system": "P. berghei", "format": "in vivo", "set-up": "Parasitaemia: unit not given here", "conditions": "for Parasitaemia: 40 mg/kg from one day prior to infection, twice a day", "procedure": "In other sets of experiments, the effects of Lx3 were examined in vivo in mice infected with P. berghei. FIG. 10 illustrates the effect of Lx3 on the level of P. berghei parasitaemia in the mice. Results are the means ±SEM of five mice per group. Mice were infected intraperitoneally with the parasite and when an appropriate parasitaemia was reached they were treated intravenously with 40 mg/kg weight of MP3.\nMice were treated at one day prior to infection with 2 doses of 40 mg/kg body weight and then another dose 60 min prior to infection (0 time) on the following day. The parasitaemia was checked 4 h later and at the times stipulated in the Table. The animals were treated with either DPC or Lx3 twice a day 30 min after taking a parasitaemia reading. The results are presented as mean ±SEM of parasitaelnia of 4 mice per group."}, "TNF-α": {"test_system": "TNF-α", "experiment": "TNF-α production by human peripheral blood leukocytes", "format": "cell-based", "conditions": "Leukocyte, stimulus S. aureus, read-out: % Inhibition (compared to control) of TNF-α", "procedure": "(§1) The effects of the nitroalkanes (Lx1-Lx5) on lymphocyte activation and cytokine production were examined. The ability of the PUFA to suppress mitogen-induced proliferation in response to PHA and S. aureus, and to inhibit cytokine production (TNFα and IFNγ), was assessed."}, "IFN-γ": {"test_system": "IFN-γ", "experiment": "IFN-γ production by human peripheral blood leukocytes", "format": "cell-based", "conditions": "Leukocyte, stimulus PHA, read-out: % Inhibition (compared to control) of IFN-γ", "procedure": "as §1"}, "Paw oedema": {"experiment": "Paw oedema", "conditions": "in vivo"}, "P. falciparum": {"test_system": "P. falciparum", "conditions": "20 μg/ml", "protocol": "Parasites were treated with 20 μg/ml of compound. Results are means of triplicate assays of one experiment and are consistent with that found in three experiments."}}, "note": "“Also recorded” adds a separate entry of the source. Read-outs that look alike come from different tables or passages of the source.", "data": [{"smiles": "CCCCC/C=C\\C/C=C\\C/C=C\\CCCCC[N+](=O)[O-]", "note": "[Lx3, (z,z,z)-1-Nitro-6,9,12-octadecatriene]", "values": [{"measurement": "Effect on 15-LO catalysed oxidation of AA", "setting": "15-LO", "value": "Nil"}, {"measurement": "Antimalarial activity (in words)", "setting": "[1]", "value": "very active"}, {"measurement": "EC50", "setting": "[1]; 3D7, isolate FC27", "value": 6, "unit": "µg/mL"}, {"measurement": "EC50", "setting": "[1]; 3D7, isolate K+", "value": 3, "unit": "µg/mL"}, {"measurement": "EC50", "setting": "[1]; isolate 3D7", "value": 2, "unit": "µg/mL"}, {"measurement": "Activity against a chloroquine resistant isolate", "setting": "[1]; chloroquine resistant isolate", "value": "active"}, {"measurement": "Reduction of antimalarial activity by human serum", "setting": "[1]; compound 20 μg/ml, presence of human serum", "value": "did not affect the activity; also recorded: not inhibited by serum"}, {"measurement": "Antimalarial activity on P. falciparum 3D7 (FIG. 1, in words)", "setting": "[1]; isolate 3D7", "value": "greatest activity"}, {"measurement": "Recovered cellular Lx3, unesterified Lx3", "setting": "Red blood cells", "value": "2.1 ± 0.2 % of total added"}, {"measurement": "Form of the compound taken up by the cells", "setting": "[2]; GC-MS", "value": "remained exclusively in the unesterified form"}, {"measurement": "Elongation, chain-shortening or de-saturation products detected", "setting": "[2]; either cell population, GC-MS", "value": "No elongation, chain-shortening or de-saturation products"}, {"measurement": "Recovered cellular Lx3, unesterified Lx3", "setting": "[2]; parasitised red blood cells, 200 μg Lx3, 37° C., 4 h", "value": "12.9 ± 0.4 % of total added"}, {"measurement": "Tolerability in mice", "setting": "P. berghei; intravenous 40 mg/kg", "value": "tolerated Lx3 quite well"}, {"measurement": "Parasitaemia", "setting": "P. berghei; mice, 4 h after infection", "value": "0.18 ± 0.05"}, {"measurement": "Parasitaemia", "setting": "P. berghei; mice, 22 h after infection", "value": "0.30 ± 0.10"}, {"measurement": "Parasitaemia", "setting": "P. berghei; mice, 28 h after infection", "value": "0.14 ± 0.05"}, {"measurement": "Parasitaemia", "setting": "P. berghei; mice, 46 h after infection", "value": "0.40 ± 0.14"}, {"measurement": "Change in circulating parasites (parasitaemia)", "setting": "P. berghei; mice, single intravenous dose 40 mg/kg, within 5 h after injection", "value": "marked drop in circulating parasites"}, {"measurement": "inhibition at 20 µM", "setting": "TNF-α", "value": 48.2, "unit": "%"}, {"measurement": "inhibition at 20 µM", "setting": "IFN-γ", "value": 37.6, "unit": "%"}, {"measurement": "Effect in paw oedema", "setting": "Paw oedema", "value": "either inflammatory or anti-inflammatory"}, {"measurement": "Morphology of parasites in treated cultures", "setting": "P. falciparum", "value": "degenerate mature rings, trophozoites and shizonts"}]}]}
